Experimental data: patent US9062088B2, “CDK-inhibiting pyrrolopyrimidine carboxamide derivative or pharmaceutically acceptable salt thereof, and pharmaceutical composition containing the same as active ingredient for preventing or treating hepatocellular carcinoma” (SNU R&DB Foundation, priority 2010, dated 2015)

Legend:
SNU-354 cells = assay: Flow cytometry, sub G1 ratio change (Experimental Example 3); format: cell-based, human; details: 10 μM, 24 hours, vehicle = 1.0
Description: SNU-354 cells were seeded in a 90 mm dish, to which vehicle and the compounds of Examples 2˜6 were treated at the concentration of 10 μM each for 24 hours. The cells were collected and washed with cold PBS, followed by reaction in 500 μl of cold 70% ethanol at 4° C. for overnight to fix the cells. The cells were washed with 500 μl of PBS three times, followed by reaction with 500 μl of PBS containing 50 μg/mL propidium iodide (P1) and 50 μl of 1 mg/mL RNAse A at room temperature for 30 minutes in the darkness. Fluorescence of the P1 stained cell was measured by using FACS caliber flow cytometer and cell quest program (Becton Dickinson Immunocytometry Systems, CA, USA). Sub G1 ratio changes of SNU-354 cells induced by the compounds were measured by FACS analysis.

p-Nucleolin (Cdk1) = assay: Western blotting of p-nucleolin (Cdk1) in SNU-354 cells; format: cell-based, human
Description: (§1) SNU-354 cells were cultured in RPMI 1640 (Invitrogen, CA, USA) supplemented with 10% FBS (Invitrogen) and antibiotics/antimycotics (Invitrogen) in a 5% CO2 incubator at 37° C. […]
(§2) After treating the compound of Example 2 to SNU-354 cells, cell pellet was lysed with lysis buffer (0.5% triton X-100, 20 mM Tris-HCl (pH 7.5), 2 mM magnesium chloride, 1 mM DTT, 1 mM EGTA, 50 mM β-glycerophosphate, 25 mM sodium fluoride, 1 mM Na3VO4, 2 μg/mL leupeptin, 2 μg/mL pepstatin A, 100 μg/mL phenylmethylsulfonyl fluoride, and 1 μg/mL antipain) at 4° C. for 1 hour, followed by quantification of protein. A proper amount of protein was electrophoresed on SDS-PAGE gel and then transferred onto polyvinylidene difluoride membrane (Millipore Co., Bedford, Mass.). The membrane was reacted in inhibiting solution (PBS, 5% skim milk, 0.1% tween-20) at room temperature for 1˜2 hours. The membrane was reacted with the primary antibody (goat anti-phospho-Rb, rabbit anti-nucleolin) diluted in the inhibiting solution (1:1000). Then, the membrane was washed with PBST, followed by reaction with the proper secondary antibody (horseradish peroxidase (HRP) conjugated) at room temperature for 1 hour.

Mcl-1, survivin, XIAP = assay: Western blotting of Mcl-1, survivin, XIAP proteins in SNU-354 cells; format: cell-based, human; details: FIG. 13
Description: as §2
Experiment was performed by the same manner as described in step 2 of Experimental Example 1 except that rabbit anti-Mcl-1 (from Santa Cruz Biochemicals, CA, USA), rabbit anti-survivin, rabbit anti-XIAP (from Cell Signaling, MA, USA), and rabbit anti-Actin (from Sigma, USA) were used as primary antibodies.

[1] = Body weight of xenograft mice; format: in vivo, nude mice; details: 4 mg/kg and 20 mg/kg intraperitoneal; FIG. 21
Description: (§3) Male nude mice at 5˜6 weeks were purchased from Central Lab. Animal Inc. (Republic of Korea). The mice were raised in the test animal laboratory at College of Pharmacy, Seoul National University. All the experiments with test animals were performed by the protocol set by Institute of Laboratory Animal Resources, Seoul National University. 1×10^7 cells of the human hepatocellular carcinoma cell line SNU-354 were suspended in 200 μl of PBS, which was injected into the right front paw of the mouse by subcutaneous injection, followed by observation until the xenograft tumor grew to 100±30 mm^3. The mice having tumors reaching the proper size were divided into three groups (n=8). One of the groups was used as the control (treated with vehicle) and the other two groups were treated with the compound of Example 2 at the concentrations of 4 mg/kg and 20 mg/kg respectively, once a day for 3 weeks (5 times/week) by intraperitoneal injection. The control group was treated with 5% ethanol and 30% polyethylene glycol 200 (Fluka, Netherlands). The administration schedule was marked on data. Tumor size, body weight and other conditions of the animal were observed every day until the tumor size reached 2000 mm^3. The tumor size was calculated by V=a×b×c×π/6 (a=long axis of the tumor, b=short axis of the tumor, c=height of the tumor). 33 days after the treatment, the mice were sacrificed. […]

[2] = tested on: SNU-354 xenografted tumor; assay: SNU-354 cancer xenograft, tumor growth; format: in vivo; details: 5 times/week for 3 weeks, nude mice
Description: as §3

p-Rb (Cdk2) = assay: Western blotting of p-Rb (Cdk2) in SNU-354 cells; format: cell-based, human
Description: as §1, §2

Cdk2/cyclin A = molecular target: T1, Cdk2/cyclin A (Homo sapiens, UniProt P24941); assay: In vitro kinase activity assay, histone H1 phosphorylation by Cdk2/cyclin A; format: biochemical; details: for Phosphorylation (%) Cdk2: 0 nM = 100%
T1 construct: purchased Upstate
Description: To kinase assay buffer (50 mM Tris (pH 7.4), 10 mM magnesium chloride, 1 mM EGTA, 40 mM β-glycerophosphate, 0.1 mM Na3VO4, 1 mM DTT, 0.1 μg/mL leupeptin, 0.1 μg/mL pepstatin A, 0.1 μg/mL antipain and 1 mM phenylmethylsulfonyl fluoride) were added 5 μg histone H1 as a substrate, 20 ng Cdk1/cyclin B or 40 ng Cdk2/cyclin A recombinant protein (Upstate, NY, USA) as an enzyme, 2.5 μCi [γ-32P]ATP, and 100 μM MgAc/ATP. The total reaction volume was adjusted to 50 μl. The compound of Example 2 was added to the reaction mixture, followed by inducing kinase reaction at 30° C. for 20 minutes. Upon completion of the reaction, the reaction mixture proceeded to electrophoresis on 12% SDS-polyacrylamide gel. Phosphorylation levels of Cdk1 and Cdk2 over the concentrations of the compound of Example 2 were confirmed by autoradiography, and the results are shown in FIG. 1, FIG. 2, and Table 1.
The intensity of bands was analyzed by densitometry (GS-800, Bio-Rad).

SMILES: CC(C)C(=O)OC[C@@H]1O[C@H](n2cnc(N)c3c(C(N)=O)c(Br)nc2-3)[C@H](O)[C@H]1O [Example 2, ((2S,3R,4R,5S)-5-(4-amino-6-bromo-5-carbamoyl-1H-pyrrolo[2,3-d]pyrimidin-1-yl)-3,4-dihydroxy-tetrahydrofuran-2-yl)methyl isobutyrate]
- sub G1 ratio change (SNU-354 cells): 5.9
- Phosphorylation (%) p-Nucleolin (Cdk1) (p-Nucleolin (Cdk1); treatment time 6 (hours)): 96.9%
- Phosphorylation (%) p-Nucleolin (Cdk1) (p-Nucleolin (Cdk1); treatment time 12 (hours)): 11.7%
- Phosphorylation (%) p-Nucleolin (Cdk1) (p-Nucleolin (Cdk1); treatment time 18 (hours)): 3.1%
- Phosphorylation (%) p-Nucleolin (Cdk1) (p-Nucleolin (Cdk1); treatment time 24 (hours)): 3.0%
- Mcl-1, Survivin and XIAP protein level (Mcl-1, survivin, XIAP): down-regulated
- weight change of test animals [1]: no weight change
- growth of the tumor reduced at average, compared with the control ([2]; 4 mg/kg/day intraperitoneal): 15%
- growth of the tumor reduced at average, compared with the control ([2]; 20 mg/kg/day intraperitoneal): 47%
- Phosphorylation (%) p-Rb(Cdk2) (p-Rb (Cdk2); treatment time 6 (hours)): 3.6%
- Phosphorylation (%) p-Rb(Cdk2) (p-Rb (Cdk2); treatment time 12 (hours)): 2.7%
- Phosphorylation (%) p-Rb(Cdk2) (p-Rb (Cdk2); treatment time 18 (hours)): 0.6%
- Phosphorylation (%) p-Rb(Cdk2) (p-Rb (Cdk2); treatment time 24 (hours)): 0.3%
- Phosphorylation (%) Cdk2 (Cdk2/cyclin A; 10 nM): 86.5%
- Phosphorylation (%) Cdk2 (Cdk2/cyclin A; 20 nM): 75.0%
- Phosphorylation (%) Cdk2 (Cdk2/cyclin A; 40 nM): 59.0%
- Phosphorylation (%) Cdk2 (Cdk2/cyclin A; 50 nM): 50%
- Phosphorylation (%) Cdk2 (Cdk2/cyclin A; 60 nM): 43.0%
- Phosphorylation (%) Cdk2 (Cdk2/cyclin A; 80 nM): 39.2%
- Phosphorylation (%) Cdk2 (Cdk2/cyclin A; 100 nM): 4.5%
- IC50 (Cdk2/cyclin A; histone H1 phosphorylation): 50 nM
